What follows are molecules tested against T1, CDK2/Cyclin E complex (Homo sapiens, UniProt P24941) (assay: CDK2/Cyclin E fluorescence-based microfluidic mobility shift assay (CDK2 Biochemical Caliper Assay)). Conditions: read-out: Biochemical CDK2/CyclinE Caliper IC50.
T1 construct: purchased Eurofins 14-475
In short: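 Wild-type CDK2/Cyclin E was preincubated with compound and ATP for 30 min at RT before the 5-FAM-QSPKKG peptide was added. Final concentrations were 0.1 nM enzyme, 2000 uM ATP, 1.5 uM peptide and 1% DMSO. After 20 hr at RT and EDTA stop, substrate conversion was read by microfluidic mobility shift over an 11-point, 3-fold dilution series.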

Row | SMILES | IC50 [nM]
1 | COCc1cc(C(=O)Nc2cc([C@H]3CC[C@@H](c4ccc(C(C)C)cn4)C3)[nH]n2)n(C)n1 (single isomer, unassigned) [Example 552] | 1000 to 100000
2 | COCc1cc(C(=O)Nc2cc([C@@H]3CC[C@H](c4ccc(C(C)C)cn4)C3)[nH]n2)n(C)n1 (single isomer, unassigned) [Example 553] | 1000 to 100000
3 | COCc1cc(C(=O)Nc2cc([C@H]3CC[C@@H](Cc4ncc(C)s4)C3)[nH]n2)n(C)n1 (single isomer, unassigned) [Example 554] | 1000 to 100000
4 | COCc1cc(C(=O)Nc2cc([C@@H]3CC[C@H](Cc4ncc(C)s4)C3)[nH]n2)n(C)n1 (single isomer, unassigned) [Example 555] | 250 to 1000
5 | COCc1cc(C(=O)Nc2cc([C@@H]3CC[C@@H](Cc4ncc(C)s4)C3)[nH]n2)n(C)n1 (single isomer, unassigned) [Example 556] | 1000 to 100000
6 | COCc1cc(C(=O)Nc2cc([C@H]3CC[C@H](Cc4ncc(C)s4)C3)[nH]n2)n(C)n1 (single isomer, unassigned) [Example 557] | 1000 to 100000
7 | CC(C)NC(=O)O[C@@H]1CC[C@H](c2cc(Nc3cncc(OCCO)n3)n[nH]2)C1 (single isomer, unassigned) [Example 563] | ≤ 100
8 | CC(C)NC(=O)O[C@H]1CC[C@@H](c2cc(Nc3cncc(OCCO)n3)n[nH]2)C1 (single isomer, unassigned) [Example 564] | ≤ 100
9 | CC1(C)NC(=O)c2ccc(Nc3cc([C@H]4CC[C@@H](Oc5cccnc5)C4)[nH]n3)cc21 (single isomer, unassigned) [Example 565] | ≤ 100
10 | COCc1cc(C(=O)Nc2cc([C@H]3C[C@H](OC)[C@@H](OC(=O)NC(C)C)C3)[nH]n2)n(C)n1 (single isomer, unassigned) [Example 567] | 1000 to 100000
11 | COCc1cc(C(=O)Nc2cc([C@@H]3C[C@@H](OC)[C@H](OC(=O)NC(C)C)C3)[nH]n2)n(C)n1 (single isomer, unassigned) [Example 568] | 1000 to 100000
12 | COCc1cc(C(=O)Nc2cc([C@@H]3C[C@H](OC)[C@@H](OC(=O)NC(C)C)C3)[nH]n2)n(C)n1 (single isomer, unassigned) [Example 569] | 1000 to 100000
13 | COCc1cc(C(=O)Nc2cc([C@H]3C[C@@H](OC)[C@H](OC(=O)NC(C)C)C3)[nH]n2)n(C)n1 (single isomer, unassigned) [Example 570] | 1000 to 100000
14 | COCc1cc(C(=O)Nc2cc([C@H]3CC[C@@H](c4ccc(C)nn4)C3)[nH]n2)n(C)n1 (single isomer, unassigned) [Example 572] | 1000 to 100000
15 | COCc1cc(C(=O)Nc2cc([C@@H]3CC[C@H](c4ccc(C)nn4)C3)[nH]n2)n(C)n1 (single isomer, unassigned) [Example 573] | 1000 to 100000
16 | COCc1cc(C(=O)Nc2cc([C@@H]3CC[C@@H](c4ccc(C)nn4)C3)[nH]n2)n(C)n1 (single isomer, unassigned) [Example 574] | 1000 to 100000
17 | COCc1cc(C(=O)Nc2cc([C@H]3CC[C@H](c4ccc(C)nn4)C3)[nH]n2)n(C)n1 (single isomer, unassigned) [Example 575] | 1000 to 100000
18 | COCc1cc(C(=O)Nc2cc([C@H]3CC[C@@H](c4cnc(C)cn4)C3)[nH]n2)n(C)n1 (single isomer, unassigned) [Example 576] | 1000 to 100000
19 | COCc1cc(C(=O)Nc2cc([C@@H]3CC[C@H](c4cnc(C)cn4)C3)[nH]n2)n(C)n1 (single isomer, unassigned) [Example 577] | 1000 to 100000
20 | COCc1cc(C(=O)Nc2cc([C@@H]3CC[C@@H](c4cnc(C)cn4)C3)[nH]n2)n(C)n1 (single isomer, unassigned) [Example 578] | 1000 to 100000
21 | COCc1cc(C(=O)Nc2cc([C@H]3CC[C@H](c4cnc(C)cn4)C3)[nH]n2)n(C)n1 (single isomer, unassigned) [Example 579] | 1000 to 100000

Second part, the molecule after the results:

Row | IC50 [nM] | SMILES
22 | ≤ 100 | COCc1cc2c(Nc3cc([C@@H]4C[C@H](OC(=O)N5[C@@H](C)CC[C@@H]5C)CO4)[nH]n3)nccn2n1 (single isomer, unassigned) [Example 580]
23 | ≤ 100 | COCc1cc2c(Nc3cc([C@H]4C[C@@H](OC(=O)N5[C@@H](C)CC[C@@H]5C)CO4)[nH]n3)nccn2n1 (single isomer, unassigned) [Example 581]
24 | 1000 to 100000 | CC(C)c1[nH]ncc1O[C@@H]1CO[C@H](c2cc(Nc3nccn4nccc34)n[nH]2)C1 (single isomer, unassigned) [Example 584]
25 | 1000 to 100000 | CC(C)c1[nH]ncc1O[C@H]1CO[C@@H](c2cc(Nc3nccn4nccc34)n[nH]2)C1 (single isomer, unassigned) [Example 585]
26 | ≤ 100 | C[C@H]1CC[C@H](C)N1C(=O)O[C@@H]1CO[C@H](c2cc(Nc3ccc4c(c3)C(C)(C)NC4=O)n[nH]2)C1 (single isomer, unassigned) [Example 590]
27 | ≤ 100 | C[C@H]1CC[C@H](C)N1C(=O)O[C@H]1CO[C@@H](c2cc(Nc3ccc4c(c3)C(C)(C)NC4=O)n[nH]2)C1 (single isomer, unassigned) [Example 591]
28 | 1000 to 100000 | COCc1cc(C(=O)Nc2cc([C@H]3CC[C@@H](c4ncc(C)cn4)C3)[nH]n2)n(C)n1 (single isomer, unassigned) [Example 592]
29 | 1000 to 100000 | COCc1cc(C(=O)Nc2cc([C@@H]3CC[C@H](c4ncc(C)cn4)C3)[nH]n2)n(C)n1 (single isomer, unassigned) [Example 594]
30 | 1000 to 100000 | COCc1cc(C(=O)Nc2cc([C@H]3CC[C@H](c4ncc(C)cn4)C3)[nH]n2)n(C)n1 (single isomer, unassigned) [Example 595]
31 | 1000 to 100000 | COCc1cc(C(=O)Nc2cc([C@@H]3CC[C@@H](c4ncc(C)cn4)C3)[nH]n2)n(C)n1 (single isomer, unassigned) [Example 596]
32 | 1000 to 100000 | COCc1cc(C(=O)Nc2cc([C@H]3CC[C@@H](c4ccc(C)cn4)C3)[nH]n2)n(C)n1 (single isomer, unassigned) [Example 597]
33 | 1000 to 100000 | COCc1cc(C(=O)Nc2cc([C@@H]3CC[C@H](c4ccc(C)cn4)C3)[nH]n2)n(C)n1 (single isomer, unassigned) [Example 598]
34 | 1000 to 100000 | COCc1cc(C(=O)Nc2cc([C@H]3CC[C@H](c4ccc(C)cn4)C3)[nH]n2)n(C)n1 (single isomer, unassigned) [Example 599]
35 | 1000 to 100000 | COCc1cc(C(=O)Nc2cc([C@@H]3CC[C@@H](c4ccc(C)cn4)C3)[nH]n2)n(C)n1 (single isomer, unassigned) [Example 600]
36 | 1000 to 100000 | COCc1cc(C(=O)Nc2cc([C@H]3CC[C@@H](c4cc(C(C)C)ncn4)C3)[nH]n2)n(C)n1 (single isomer, unassigned) [Example 601]
37 | 1000 to 100000 | COCc1cc(C(=O)Nc2cc([C@@H]3CC[C@H](c4cc(C(C)C)ncn4)C3)[nH]n2)n(C)n1 (single isomer, unassigned) [Example 602]

Row | IC50 [nM] | SMILES
38 | 1000 to 100000 | COCc1cc(C(=O)Nc2cc([C@H]3CC[C@H](c4cc(C(C)C)ncn4)C3)[nH]n2)n(C)n1 (single isomer, unassigned) [Example 603]
39 | 1000 to 100000 | COCc1cc(C(=O)Nc2cc([C@@H]3CC[C@@H](c4cc(C(C)C)ncn4)C3)[nH]n2)n(C)n1 (single isomer, unassigned) [Example 604]
40 | 1000 to 100000 | COCc1cc(C(=O)Nc2cc([C@H]3CC[C@@H](c4cccc(C(C)C)n4)C3)[nH]n2)n(C)n1 (single isomer, unassigned) [Example 605]
41 | 1000 to 100000 | COCc1cc(C(=O)Nc2cc([C@@H]3CC[C@H](c4cccc(C(C)C)n4)C3)[nH]n2)n(C)n1 (single isomer, unassigned) [Example 606]
42 | 1000 to 100000 | COCc1cc(C(=O)Nc2cc([C@H]3CC[C@H](c4cccc(C(C)C)n4)C3)[nH]n2)n(C)n1 (single isomer, unassigned) [Example 607]
43 | 1000 to 100000 | COCc1cc(C(=O)Nc2cc([C@@H]3CC[C@@H](c4cccc(C(C)C)n4)C3)[nH]n2)n(C)n1 (single isomer, unassigned) [Example 608]
44 | ≤ 100 | COCc1cc(C(=O)Nc2cc([C@H]3CC[C@@H](c4nccc(C(C)C)n4)C3)[nH]n2)n(C)n1 (single isomer, unassigned) [Example 609]
45 | ≤ 100 | COCc1cc(C(=O)Nc2cc([C@@H]3CC[C@H](c4nccc(C(C)C)n4)C3)[nH]n2)n(C)n1 (single isomer, unassigned) [Example 610]
46 | 1000 to 100000 | COCc1cc(C(=O)Nc2cc([C@H]3CC[C@H](c4nccc(C(C)C)n4)C3)[nH]n2)n(C)n1 (single isomer, unassigned) [Example 611]
47 | 1000 to 100000 | COCc1cc(C(=O)Nc2cc([C@@H]3CC[C@@H](c4nccc(C(C)C)n4)C3)[nH]n2)n(C)n1 (single isomer, unassigned) [Example 612]
48 | ≤ 100 | COCc1cc2c(Nc3cc([C@H]4C[C@@H](OC(=O)NC(C)(C)C)CO4)[nH]n3)nccn2n1 (single isomer, unassigned) [Example 617]
49 | ≤ 100 | COCc1cc2c(Nc3cc([C@@H]4C[C@H](OC(=O)NC(C)(C)C)CO4)[nH]n3)nccn2n1 (single isomer, unassigned) [Example 618]
50 | ≤ 100 | COCc1cc2c(Nc3cc([C@H]4C[C@@H](OC(=O)N[C@]5(C)CC5(F)F)CO4)[nH]n3)nccn2n1 (single isomer, unassigned) [Example 729]
51 | ≤ 100 | COCc1cc2c(Nc3cc([C@H]4C[C@@H](OC(=O)N[C@@]5(C)CC5(F)F)CO4)[nH]n3)nccn2n1 (single isomer, unassigned) [Example 731]
52 | ≤ 100 | COCc1cc2c(Nc3cc([C@H]4C[C@@H](OC(=O)N[C@@H](C)CC(F)(F)F)CO4)[nH]n3)nccn2n1 (single isomer, unassigned) [Example 739]
53 | ≤ 100 | COCc1cc2c(Nc3cc([C@H]4C[C@@H](OC(=O)N[C@H](C)CC(F)(F)F)CO4)[nH]n3)nccn2n1 (single isomer, unassigned) [Example 757]
